Activity calls are given as the source filed them. No cut-off for these calls is given here.
Tests used:
[1] = target: T1, Tyrosinase (Agaricus bisporus) (UniProt O42713)
T1 sequence (whole entry): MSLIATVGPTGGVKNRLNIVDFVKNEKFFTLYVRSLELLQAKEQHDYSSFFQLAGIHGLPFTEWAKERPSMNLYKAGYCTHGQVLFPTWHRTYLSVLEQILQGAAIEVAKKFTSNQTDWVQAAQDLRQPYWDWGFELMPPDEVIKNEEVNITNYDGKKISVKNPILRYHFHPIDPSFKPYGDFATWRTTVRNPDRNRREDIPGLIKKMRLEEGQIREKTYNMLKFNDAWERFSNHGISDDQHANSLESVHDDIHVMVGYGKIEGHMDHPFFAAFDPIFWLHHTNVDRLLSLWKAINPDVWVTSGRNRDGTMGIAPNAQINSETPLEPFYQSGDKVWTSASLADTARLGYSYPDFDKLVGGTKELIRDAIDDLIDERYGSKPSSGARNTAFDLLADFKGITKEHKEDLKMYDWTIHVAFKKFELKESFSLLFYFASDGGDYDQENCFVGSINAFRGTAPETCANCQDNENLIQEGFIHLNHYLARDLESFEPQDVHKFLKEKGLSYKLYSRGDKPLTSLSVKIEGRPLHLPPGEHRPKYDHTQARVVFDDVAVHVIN
Description: Inhibition of monophenolase activity of mushroom tyrosinase assessed as inhibition constant for enzyme-substrate-inhibitor complex by measuring reduction in dopachrome formation using L-Tyrosine substrate by UV-Vis spectrophotometry

[2] = target: T1, Tyrosinase (Agaricus bisporus); assay: Inhibition of monophenolase activity of mushroom tyrosinase assessed as reduction in steady state rate monophenolase activity for oxidation of L-tyrosine substrate at 0.5 to 16 uM by UV-Vis spectrophotometry
[3] = target: T2, Tyrosinase (Agaricus bisporus, UniProt O42713)
T2 sequence (O42713 whole entry): T1 sequence (whole entry)
Description: Mixed type inhibition of diphenolase activity of mushroom tyrosinase assessed as reduction in dopachrome formation using L-DOPA substrate by UV-Vis spectrophotometry based Dixon plot analysis

[4] = target: T1, Tyrosinase (Agaricus bisporus); assay: Binding affinity to mushroom tyrosinase assessed as binding constant by fluorescence spectrophotometry
[5] = target: T2, Tyrosinase; remark: listed apart in the source
[6] = target: T2, Tyrosinase; remark: listed apart in the source
Description: Inhibition of monophenolase activity of mushroom tyrosinase assessed as inhibition constant for free enzyme-inhibitor complex by measuring reduction in dopachrome formation using L-Tyrosine substrate by UV-Vis spectrophotometry

[7] = target: T1, Tyrosinase (Agaricus bisporus); remark: listed apart in the source
Description: Inhibition of diphenolase activity of mushroom tyrosinase assessed as inhibition constant for enzyme-substrate-inhibitor complex by measuring reduction in dopachrome formation using L-DOPA substrate by UV-Vis spectrophotometry

[8] = target: T2, Tyrosinase; assay: Inhibition of monophenolase activity of mushroom tyrosinase assessed as reduction in dopachrome formation using L-Tyrosine substrate by UV-Vis spectrophotometry
[9] = target: T2, Tyrosinase; remark: listed apart in the source
Description: Inhibition of diphenolase activity of mushroom tyrosinase assessed as inhibition constant for free enzyme-inhibitor complex by measuring reduction in dopachrome formation using L-DOPA substrate by UV-Vis spectrophotometry

[10] = target: T2, Tyrosinase; assay: Inhibition of diphenolase activity of mushroom tyrosinase assessed as reduction in dopachrome formation using L-DOPA substrate by UV-Vis spectrophotometry
[11] = target: T1, Tyrosinase (Agaricus bisporus); assay: Inhibition of monophenolase activity of mushroom tyrosinase assessed as increase in lag period of monophenolase for oxidation of L-tyrosine substrate at 0.5 to 16 uM by UV-Vis spectrophotometry
[12] = target: T1, Tyrosinase (Agaricus bisporus); assay: Binding affinity to mushroom tyrosinase assessed as Stern-Volmer quenching constant by fluorescence spectrophotometry
[13] = target: T2, Tyrosinase; remark: listed apart in the source
Description: Competitive type inhibition of monophenolase activity of mushroom tyrosinase assessed as reduction in dopachrome formation using L-Tyrosine substrate by UV-Vis spectrophotometry based Dixon plot analysis

[14] = target: T2, Tyrosinase; remark: listed apart in the source
Description: Competitive type inhibition of diphenolase activity of mushroom tyrosinase assessed as reduction in dopachrome formation using L-DOPA substrate by UV-Vis spectrophotometry based Dixon plot analysis

[15] = target: T1, Tyrosinase (Agaricus bisporus); assay: Binding affinity to mushroom tyrosinase by fluorescence spectrophotometry
[16] = target: T1, Tyrosinase (Agaricus bisporus); assay: Inhibition of monophenolase activity of mushroom tyrosinase assessed as reduction in N-acetyl-L-dopaquinone formation at 25 uM using N-acetyl-L-tyrosine substrate incubated up to 60 mins by HPLC analysis
[17] = target: T1, Tyrosinase (Agaricus bisporus); assay: Inhibition of monophenolase activity of mushroom tyrosinase assessed as lag time period of monophenolase for oxidation of L-tyrosine substrate at 16 uM by UV-Vis spectrophotometry (reference value: […] secs)

SMILES	Kis [1] [µM]	inhibition [2]	Ki [3] [µM]	KA [4] [×10⁶ L/mol]	Ki [5] [µM]	Ki [6] [µM]	Kis [7] [µM]	IC50 [8] [µM]	Ki [9] [µM]	IC50 [10] [µM]	inhibition [11]	KSV [12] [×10⁴ L/mol]	Ki [13] [µM]	Ki [14] [µM]	Activity [15]	inhibition [16]	TIME [17] [h]
COc1cc(C2Oc3cc([C@H]4Oc5cc(O)cc(O)c5C(=O)[C@@H]4O)ccc3OC2CO)ccc1O (mixture of isomers) [SILIBININ]	3.7	Dose-dependent effect	8.5	6.16	0.7	0.7	27.6	1.7	8.4	12.1	Dose-dependent effect	0.261	–	–	–	–	–
COc1cc([C@H]2Oc3cc(O)cc(O)c3C(=O)[C@@H]2O)ccc1O	–	–	–	0.849	–	–	–	51.2	–	150	–	0.0222	20.5	73.4	–	–	–
COc1cc([C@@H]2Oc3ccc([C@H]4Oc5cc(O)cc(O)c5C(=O)[C@@H]4O)cc3O[C@H]2CO)ccc1O [ISOSILYBIN B]	8	Dose-dependent effect	11.6	2.42	4.2	4.3	25.2	4.9	12.7	19.8	Dose-dependent effect	0.0882	–	–	–	–	–
O=C1c2c(O)cc(O)cc2O[C@H](c2ccc(O)c(O)c2)[C@H]1O	–	–	–	0.918	–	–	–	–	–	–	–	0.0492	–	–	–	–	–
COc1cc([C@@H]2Oc3c(O)cc([C@H]4Oc5cc(O)cc(O)c5C(=O)[C@@H]4O)cc3[C@H]2CO)ccc1O [SILICRISTIN A]	2.9	Dose-dependent effect	15.4	3.55	2.1	2.1	37.3	3.2	15.2	28.8	Dose-dependent effect	0.192	–	–	–	–	–
COc1cc([C@H]2Oc3c(O)cc([C@H]4Oc5cc(O)cc(O)c5C(=O)[C@@H]4O)cc3[C@@H]2CO)ccc1O [SILICRISTIN B]	14	Dose-dependent effect	35.5	2.88	2.8	2.8	91.3	4.5	34.7	44.9	Dose-dependent effect	0.109	–	–	–	–	–
COc1cc([C@@H]2[C@H]3CO[C@@]4(O)C(=O)[C@@H]2C=C([C@H]2Oc5cc(O)cc(O)c5C(=O)[C@@H]2O)[C@@H]34)ccc1O [SILIDIANIN]	2.3	Dose-dependent effect	14.9	5.81	1.7	2.1	90.8	2.6	15	16.5	Dose-dependent effect	0.193	–	–	–	–	–
O=C1c2c(O)cc(O)cc2O[C@H](c2ccc(O)cc2)[C@H]1O [DIHYDROKAEMPFEROL]	–	–	–	0.094	–	–	–	73.6	–	> 200	–	0.0199	42	–	Dose-dependent effect	–	–
COc1cc([C@@H]2Oc3c(O)cc(-c4oc5cc(O)cc(O)c5c(=O)c4O)cc3[C@H]2CO)ccc1O	6.4	Dose-dependent effect	36.7	2.25	4.7	4.6	146	7.6	38.3	35.9	Dose-dependent effect	0.0634	–	–	–	–	–
COc1cc([C@H]2Oc3ccc([C@H]4Oc5cc(O)cc(O)c5C(=O)[C@@H]4O)cc3O[C@@H]2CO)ccc1O [ISOSILYBIN A]	3.2	Dose-dependent effect	12.4	6.31	1.1	1.1	29.5	2.1	12.3	16.7	Dose-dependent effect	0.267	–	–	Dose-dependent effect	Active	0.0833
